Assay results as given in PubChem BioAssay AID250 (DTP/NCI, 2004).
“And” between values parts separate entries of the source, which are not always exact repeats. Identical values can stand only once. Toxic doses and inconclusive results are not listed.

Tested on: BDF1 mice, L1210 leukemia sc, survival T/C
Experiment: NCI In Vivo Anticancer Drug Screen. Data for tumor model L1210 Leukemia (subcutaneous) in B6D2F1 (BDF1) mice
Conditions: endpoint: median survival time, higher = longer survival
Outline: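 Transplantable tumor-bearing mice; survival or tumor size recorded; result = T/C, treated vs vehicle control.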

[1] = dose: 50.0 mg/kg/injection, schedule: Q01DX009 (ip), vehicle: steriod suspending solution
[2] = dose: 50.0 mg/kg/injection, schedule: Q01DX009 (sc), vehicle: steriod suspending solution
[3] = dose: 200.0 mg/kg/injection, schedule: Q01DX009 (sc), vehicle: steriod suspending solution
[4] = dose: 400.0 mg/kg/injection, schedule: Q01DX009 (sc), vehicle: steriod suspending solution
[5] = dose: 800.0 mg/kg/injection, schedule: Q01DX009 (sc), vehicle: steriod suspending solution

N=C(N)SCc1c2ccccc2c(CSC(=N)N)c2ccccc12
T/C (dose: 25.0 mg/kg/injection, schedule: Q01DX009 (ip), vehicle: steriod suspending solution): 110 % of control
T/C [1]: 110 % of control
T/C [2]: 120 % of control
T/C (dose: 50.0 mg/kg/injection, schedule: Q04DX003 (ip), vehicle: steriod suspending solution): 100 % of control
T/C (dose: 62.5 mg/kg/injection, schedule: Q01DX001 (ip), vehicle: steriod suspending solution): 100 % of control
T/C (dose: 100.0 mg/kg/injection, schedule: Q04DX003 (ip), vehicle: steriod suspending solution): 110 % of control
T/C (dose: 100.0 mg/kg/injection, schedule: Q04DX003 (sc), vehicle: steriod suspending solution): 100 % of control
T/C (dose: 125.0 mg/kg/injection, schedule: Q01DX001 (ip), vehicle: steriod suspending solution): 110 % of control
T/C (dose: 125.0 mg/kg/injection, schedule: Q01DX001 (sc), vehicle: steriod suspending solution): 110 % of control
T/C [3]: 120 % of control
T/C (dose: 200.0 mg/kg/injection, schedule: Q04DX003 (sc), vehicle: steriod suspending solution): 105 % of control
T/C (dose: 250.0 mg/kg/injection, schedule: Q01DX001 (ip), vehicle: steriod suspending solution): 110 % of control
T/C [4]: 110 % of control
T/C (dose: 400.0 mg/kg/injection, schedule: Q04DX003 (sc), vehicle: steriod suspending solution): 110 % of control
T/C (dose: 500.0 mg/kg/injection, schedule: Q01DX001 (sc), vehicle: steriod suspending solution): 105 % of control
T/C [5]: 110 % of control
T/C (dose: 800.0 mg/kg/injection, schedule: Q04DX003 (sc), vehicle: steriod suspending solution): 100 % of control
T/C (dose: 1000.0 mg/kg/injection, schedule: Q01DX001 (sc), vehicle: steriod suspending solution): 110 % of control
T/C (dose: 2000.0 mg/kg/injection, schedule: Q01DX001 (sc), vehicle: steriod suspending solution): 100 % of control

CCCn1cnc2c(=S)nc(N)[nH]c21
T/C (dose: 0.65 mg/kg/injection, schedule: Q01DX Z (sc), vehicle: methylcellulose (MC)): 100 % of control
T/C (dose: 0.65 mg/kg/injection, schedule: Q01DX Z (sc), vehicle: other): 100 % of control
T/C (dose: 1.08 mg/kg/injection, schedule: Q01DX Z (sc), vehicle: methylcellulose (MC)): 100 % of control
T/C (dose: 1.08 mg/kg/injection, schedule: Q01DX Z (sc), vehicle: other): 100 % of control
T/C (dose: 1.8 mg/kg/injection, schedule: Q01DX Z (sc), vehicle: methylcellulose (MC)): 100 % of control
T/C (dose: 1.8 mg/kg/injection, schedule: Q01DX Z (sc), vehicle: other): 105 % of control
T/C (dose: 3.0 mg/kg/injection, schedule: Q01DX Z (sc), vehicle: methylcellulose (MC)): 111 % of control
T/C (dose: 3.0 mg/kg/injection, schedule: Q01DX Z (sc), vehicle: other): 111 % of control
T/C (dose: 5.0 mg/kg/injection, schedule: Q01DX Z (sc), vehicle: methylcellulose (MC)): 111 % of control
T/C (dose: 5.0 mg/kg/injection, schedule: Q01DX Z (sc), vehicle: other): 122 % of control
T/C (dose: 8.4 mg/kg/injection, schedule: Q01DX Z (sc), vehicle: methylcellulose (MC)): 122 % of control
T/C (dose: 8.4 mg/kg/injection, schedule: Q01DX Z (sc), vehicle: other): 155 % of control
T/C (dose: 14.0 mg/kg/injection, schedule: Q01DX Z (sc), vehicle: other): 161 % of control
T/C (dose: 230.0 mg/kg/injection, schedule: Q01DX Z (sc), vehicle: other): 155 % of control
T/C (dose: 390.0 mg/kg/injection, schedule: Q01DX Z (sc), vehicle: other): 150 % of control

O=C(Nc1ccc(S(=O)(=O)O)cc1)c1ccc([N+](=O)[O-])cc1
T/C (dose: 8.4 mg/kg/injection, schedule: Q01DX Z (sc), vehicle: water): 155 % of control
T/C (dose: 14.0 mg/kg/injection, schedule: Q01DX Z (sc), vehicle: water): 194 % of control
T/C (dose: 23.0 mg/kg/injection, schedule: Q01DX Z (sc), vehicle: water): 150 % of control

C=C(C)c1ccc(/C=N/NC(N)=S)cc1
T/C (dose: 39.0 mg/kg/injection, schedule: Q01DX Z (sc), vehicle: methylcellulose (MC)): 109 % of control
T/C (dose: 65.0 mg/kg/injection, schedule: Q01DX Z (sc), vehicle: methylcellulose (MC)): 109 % of control
T/C (dose: 108.0 mg/kg/injection, schedule: Q01DX Z (sc), vehicle: methylcellulose (MC)): 109 % of control
T/C (dose: 180.0 mg/kg/injection, schedule: Q01DX Z (sc), vehicle: methylcellulose (MC)): 109 % of control
T/C (dose: 300.0 mg/kg/injection, schedule: Q01DX Z (sc), vehicle: methylcellulose (MC)): 113 % of control
T/C (dose: 500.0 mg/kg/injection, schedule: Q01DX Z (sc), vehicle: methylcellulose (MC)): 109 % of control

O=C1CN=C(c2ccc[nH]2)c2cc(Cl)ccc2N1
T/C (dose: 2.5 mg/kg/injection, schedule: Q01DX009 (ip), vehicle: clinical formulation): 100 % of control
T/C (dose: 2.5 mg/kg/injection, schedule: Q01DX009 (sc), vehicle: clinical formulation): 88 % of control
T/C (dose: 5.0 mg/kg/injection, schedule: Q01DX009 (ip), vehicle: clinical formulation): 100 % of control
T/C (dose: 5.0 mg/kg/injection, schedule: Q01DX009 (sc), vehicle: clinical formulation): 88 % of control
T/C (dose: 10.0 mg/kg/injection, schedule: Q01DX009 (ip), vehicle: clinical formulation): 88 % of control
T/C (dose: 10.0 mg/kg/injection, schedule: Q01DX009 (sc), vehicle: clinical formulation): 88 % of control
T/C (dose: 12.5 mg/kg/injection, schedule: Q01DX009 (ip), vehicle: Klucel (hydroxypropylcellulose) (HPC)): 100 % of control
T/C (dose: 12.5 mg/kg/injection, schedule: Q01DX009 (sc), vehicle: Klucel (hydroxypropylcellulose) (HPC)): 94 % of control
T/C (dose: 20.0 mg/kg/injection, schedule: Q01DX009 (ip), vehicle: clinical formulation): 100 % of control
T/C (dose: 20.0 mg/kg/injection, schedule: Q01DX009 (sc), vehicle: clinical formulation): 88 % of control
T/C (dose: 25.0 mg/kg/injection, schedule: Q01DX009 (ip), vehicle: Klucel (hydroxypropylcellulose) (HPC)): 88 % of control
T/C (dose: 25.0 mg/kg/injection, schedule: Q01DX009 (sc), vehicle: Klucel (hydroxypropylcellulose) (HPC)): 100 % of control
T/C (dose: 40.0 mg/kg/injection, schedule: Q01DX009 (ip), vehicle: clinical formulation): 100 % of control
T/C (dose: 40.0 mg/kg/injection, schedule: Q01DX009 (sc), vehicle: clinical formulation): 88 % of control
T/C (dose: 50.0 mg/kg/injection, schedule: Q01DX009 (ip), vehicle: Klucel (hydroxypropylcellulose) (HPC)): 100 % of control
T/C [1]: 111 % of control
T/C (dose: 50.0 mg/kg/injection, schedule: Q01DX009 (sc), vehicle: Klucel (hydroxypropylcellulose) (HPC)): 100 % of control
T/C [2]: 100 % of control
T/C (dose: 80.0 mg/kg/injection, schedule: Q01DX009 (ip), vehicle: clinical formulation): 88 % of control
T/C (dose: 80.0 mg/kg/injection, schedule: Q01DX009 (ip), vehicle: other): 100 % of control
T/C (dose: 80.0 mg/kg/injection, schedule: Q01DX009 (sc), vehicle: clinical formulation): 100 % of control
T/C (dose: 100.0 mg/kg/injection, schedule: Q01DX009 (ip), vehicle: Klucel (hydroxypropylcellulose) (HPC)): 155 % of control
T/C (dose: 100.0 mg/kg/injection, schedule: Q01DX009 (ip), vehicle: steriod suspending solution): 111 % of control
T/C (dose: 100.0 mg/kg/injection, schedule: Q01DX009 (sc), vehicle: Klucel (hydroxypropylcellulose) (HPC)): 111 % of control
T/C (dose: 100.0 mg/kg/injection, schedule: Q01DX009 (sc), vehicle: steriod suspending solution): 100 % of control
T/C (dose: 100.0 mg/kg/injection, schedule: Q08DX009 (sc), vehicle: Klucel (hydroxypropylcellulose) (HPC)): 100 % of control and 101 % of control
T/C (dose: 200.0 mg/kg/injection, schedule: Q01DX009 (ip), vehicle: steriod suspending solution): 111 % of control
T/C (dose: 200.0 mg/kg/injection, schedule: Q01DX009 (sc), vehicle: Klucel (hydroxypropylcellulose) (HPC)): 172 % of control
T/C [3]: 105 % of control
T/C (dose: 200.0 mg/kg/injection, schedule: Q08DX009 (sc), vehicle: Klucel (hydroxypropylcellulose) (HPC)): 105 % of control
T/C (dose: 400.0 mg/kg/injection, schedule: Q01DX009 (ip), vehicle: steriod suspending solution): 150 % of control
T/C (dose: 400.0 mg/kg/injection, schedule: Q01DX009 (sc), vehicle: Klucel (hydroxypropylcellulose) (HPC)): 183 % of control
T/C [4]: 166 % of control
T/C (dose: 400.0 mg/kg/injection, schedule: Q08DX009 (sc), vehicle: Klucel (hydroxypropylcellulose) (HPC)): 98 % of control and 100 % of control
T/C [5]: 166 % of control
T/C (dose: 2313.0 mg/kg/injection, schedule: Q01DX009 (sc), vehicle: Klucel (hydroxypropylcellulose) (HPC)): 88 % of control and 93 % of control
T/C (dose: 3855.0 mg/kg/injection, schedule: Q01DX009 (sc), vehicle: Klucel (hydroxypropylcellulose) (HPC)): 87 % of control
